Data as given in the NIST ThermoML archive (doi:10.1021/acs.jced.7b00119).
Several values for one entry are separate records, joined by “and”; a condition that tells them apart may be missing. Identical values can stand only once.

Legend:
[1] = Liquid, Closed cell (Static) method
[2] = excess molar enthalpy (molar enthalpy of mixing); xn = mol fraction of the nth substance listed; details: Liquid, Flow calorimetry

CO [methanol]
Details	vapor or sublimation pressure [kPa]
[1], 343.15 K	125.65

ClCCl [dichloromethane]
Details	vapor or sublimation pressure [kPa]
[1], 333.15 K	197.94

CCO [ethanol]
Details	vapor or sublimation pressure [kPa]
[1], 353.15 K	108.42

CCCCCC [hexane]
Details	vapor or sublimation pressure [kPa]
[1], 353.15 K	142.4

CC(=O)N(C)C [N,N-dimethylethanamide] + Cc1ccccc1
[2]
Details	excess molar enthalpy [kcal/mol]
363.15 K, 1955 kPa, x2 = 0.0436	0.00378
363.15 K, 1955 kPa, x2 = 0.0878	0.00686
363.15 K, 1955 kPa, x2 = 0.1327	0.0102
363.15 K, 1955 kPa, x2 = 0.1781	0.0134
363.15 K, 1955 kPa, x2 = 0.2242	0.0163
363.15 K, 1955 kPa, x2 = 0.2709	0.0193
363.15 K, 1955 kPa, x2 = 0.3182	0.0232
363.15 K, 1955 kPa, x2 = 0.3662	0.0263
363.15 K, 1955 kPa, x2 = 0.4149	0.0292
363.15 K, 1955 kPa, x2 = 0.4643	0.0318
363.15 K, 1955 kPa, x2 = 0.5144	0.0344
363.15 K, 1955 kPa, x2 = 0.5652	0.0361
363.15 K, 1955 kPa, x2 = 0.6168	0.0368
363.15 K, 1955 kPa, x2 = 0.6691	0.038
363.15 K, 1955 kPa, x2 = 0.7222	0.0385
363.15 K, 1955 kPa, x2 = 0.7761	0.0375
363.15 K, 1955 kPa, x2 = 0.8308	0.0349
363.15 K, 1955 kPa, x2 = 0.8864	0.0289
363.15 K, 1955 kPa, x2 = 0.9428	0.0178
413.15 K, 1824 kPa, x2 = 0.022	0.00251
413.15 K, 1824 kPa, x2 = 0.0441	0.00528
413.15 K, 1824 kPa, x2 = 0.0887	0.00963
413.15 K, 1824 kPa, x2 = 0.1338	0.014
413.15 K, 1824 kPa, x2 = 0.1796	0.0186
413.15 K, 1824 kPa, x2 = 0.2259	0.0225
413.15 K, 1824 kPa, x2 = 0.2728	0.0265
413.15 K, 1824 kPa, x2 = 0.3204	0.0311
413.15 K, 1824 kPa, x2 = 0.3686	0.0354
413.15 K, 1824 kPa, x2 = 0.4174	0.0406
413.15 K, 1824 kPa, x2 = 0.4668	0.0449
413.15 K, 1824 kPa, x2 = 0.5169	0.0485
413.15 K, 1824 kPa, x2 = 0.5677	0.0523
413.15 K, 1824 kPa, x2 = 0.6192	0.0554
413.15 K, 1824 kPa, x2 = 0.6714	0.0571
413.15 K, 1824 kPa, x2 = 0.7243	0.0576
413.15 K, 1824 kPa, x2 = 0.7779	0.0557
413.15 K, 1824 kPa, x2 = 0.8323	0.0497
413.15 K, 1824 kPa, x2 = 0.8874	0.0406
413.15 K, 1824 kPa, x2 = 0.9433	0.0246
413.15 K, 1824 kPa, x2 = 0.9715	0.0134

CC(=O)N(C)C [N,N-dimethylethanamide] + CCOC(C)=O
[2], 323.15 K, 1307 kPa
Details	excess molar enthalpy [kcal/mol]
x2 = 0.0476	0.00669
x2 = 0.0954	0.0126
x2 = 0.1435	0.0188
x2 = 0.1918	0.0239
x2 = 0.2404	0.0284
x2 = 0.2892	0.0327
x2 = 0.3383	0.0361
x2 = 0.3876	0.0392
x2 = 0.4372	0.0413
x2 = 0.487	0.043
x2 = 0.5371	0.044
x2 = 0.5875	0.0437
x2 = 0.6381	0.043
x2 = 0.689	0.0409
x2 = 0.7401	0.0382
x2 = 0.7916	0.0344
x2 = 0.8433	0.0287
x2 = 0.8952	0.0212
x2 = 0.9475	0.0119

CC(=O)N(C)C [N,N-dimethylethanamide] + c1ccccc1
[2], 413.15 K, 1824 kPa
Details	excess molar enthalpy [kcal/mol]
x2 = 0.0261	-0.0033
x2 = 0.0522	-0.00617
x2 = 0.1042	-0.0116
x2 = 0.1817	-0.0187
x2 = 0.2586	-0.0239
x2 = 0.3604	-0.0277
x2 = 0.4361	-0.0275
x2 = 0.5114	-0.0241
x2 = 0.5861	-0.0193
x2 = 0.6603	-0.0129
x2 = 0.7584	-0.00356
x2 = 0.8315	0.00311
x2 = 0.904	0.00703
x2 = 0.9521	0.00629
x2 = 0.9761	0.00411

CCOC(C)=O [ethyl acetate]
Details	vapor or sublimation pressure [kPa]
[1], 353.15 K	111.76

c1ccccc1 [benzene]
Details	vapor or sublimation pressure [kPa]
[1], 328.15 K	43.65

C=CCCCCCC [oct-1-ene]
[1]
Details	vapor or sublimation pressure [kPa]
328.15 K	10.12
363.15 K	39.2

CC(=O)N(C)C [N,N-dimethylethanamide]
[1]
Details	vapor or sublimation pressure
328.15 K	1.61 kPa and 1.64 kPa
333.15 K	2.23 kPa
343.15 K	3.39 kPa
353.15 K	5.32 kPa [middle of 5 runs]
363.15 K	8.46 kPa

CC(=O)N(C)C [N,N-dimethylethanamide] + CCCCCCC
[2], 413.15 K, 1824 kPa
Details	excess molar enthalpy [kcal/mol]
x2 = 0.016	0.0308
x2 = 0.0323	0.0619
x2 = 0.0659	0.122
x2 = 0.1007	0.177
x2 = 0.137	0.228
x2 = 0.1747	0.276
x2 = 0.2139	0.319
x2 = 0.2548	0.358
x2 = 0.2974	0.393
x2 = 0.3419	0.423
x2 = 0.3883	0.449
x2 = 0.4369	0.466
x2 = 0.4878	0.476
x2 = 0.5411	0.48
x2 = 0.597	0.474
x2 = 0.6557	0.456
x2 = 0.7175	0.427
x2 = 0.7825	0.376
x2 = 0.8511	0.299
x2 = 0.9234	0.181
x2 = 0.9612	0.0999
